{
  "source": "paper PMC11656837",
  "about": "“pH-Responsive Peptide Nanoparticles Deliver Macromolecules to Cells via Endosomal Membrane Nanoporation” (ACS Nano, 2024)",
  "system": "HeLa cells",
  "experiment": "Cell binding (peptide remaining in solution by HPLC)",
  "assay_type": "cell-based, human",
  "conditions": "HeLa 10^6 cells/ml in PBS pH 7, 20 μM peptide, 30 min, room temperature, supernatant by HPLC",
  "description": "This was done by equilibrating a peptide solution with and without cells for 30 min, followed by measurement of the peptide remaining in solution using reverse phase HPLC. […] The cells were also stained with the DNA staining dye Hoechst 33342. […] Cell/membrane staining by C16-D-pHD108-TAMRA continues to grow rapidly as peptides accumulate on the membranes.\nHeLa or RAW 264.7 cells were trypsinized, washed, and counted. Cells were concentrated in a minimal amount of PBS. To measure binding, 25 μL of cells at a known count were transferred to tubes and 25 μL of peptide in PBS was added for a final peptide concentration of 20 μM. Samples were incubated for 30 min with gentle agitation at room temperature. Cells were pelleted in a swinging bucket centrifuge, and 30 μL of supernatant was subjected to HPLC to measure the peptide remaining in the solution. A sample without cells but treated identically was used as a negative control for binding to normalize the recovered peptide.",
  "data": [
    {"compound": "CCCCCCCCCCCCCCCC(=O)NCC(=O)N[C@@H](C(=O)NCC(=O)N[C@H](CCC(=O)O)C(=O)N[C@@H](C(=O)N[C@H](CC(C)C)C(=O)N[C@H](Cc1c[nH]cn1)C(=O)N[C@H](CCC(=O)O)C(=O)N[C@H](CC(C)C)C(=O)N[C@H](C)C(=O)N[C@H](CCC(=O)O)C(=O)NCC(=O)N[C@H](CC(C)C)C(=O)N1CCC[C@@H]1C(=O)N[C@H](CCC(=O)O)C(=O)N[C@H](CC(C)C)C(=O)N[C@H](CCC(N)=O)C(=O)N[C@H](CCC(=O)O)C(=O)N[C@H](Cc1c[nH]c2ccccc12)C(=O)N[C@@H](C(=O)N[C@H](Cc1c[nH]cn1)C(=O)N[C@H](C)C(=O)N[C@H](C)C(=O)N[C@H](CCC(N)=O)C(=O)N[C@H](CCC(N)=O)C(=O)N[C@H](CC(C)C)C(N)=O)[C@H](C)CC)C(C)C)[C@H](C)CC", "note": "[C16-D-pHD108]", "values": [
      {"measurement": "binding to cells at pH 7", "result": "no measurable binding"}
    ]}
  ]
}
